This note sets out measurements from publication PMC9270351, “Conjugates of urolithin A with NSAIDs, their stability, cytotoxicity, and anti-inflammatory potential” (Scientific Reports, 2022).

One data set relates to THP-1 monocytes. The data set can be described thus: PI flow cytometric assay, cell viability. Format: cell-based, human. Conditions: 24-h incubation. Here is the method: THP-1 monocytes were seeded in 24-well plates at a density of 400,000. Selected UADs (2–50 µM), control (0.25% DMSO in PBS), UA (50 µM) and parthenolide (25 µM) as a control were added to THP-1 monocytes and left for 24-h incubation at 37 °C under humidified 5% CO2 in the culture medium containing RPMI 1640 without phenol red supplemented with 10% FBS and 2 mM glutamine. After that time, cell suspensions were transferred to Eppendorf tubes, centrifuged, stained with propidium iodide (PI) and analyzed using FACS (MACSQuant® Analyze, Miltenyi Biotec, Bergisch Gladbach, Germany). The cell viability was reported as the percentage of PI(−) cells.
(In general: A flow cytometer gives signals particle by particle.)

Data set [1] has as its system TNF-α secretion in LPS-stimulated THP-1 derived macrophages. The data set can be described thus: TNF-α secretion of LPS-stimulated macrophages (ELISA). Format: cell-based, human. Particulars: over tested concentrations; 1 h treatment, then LPS 3 h. Here is the method:
(§1) THP-1 human monocytic cells (DSMZ, Braunschweig, Germany) were studied between passages 4 and 19. Monocytes were differentiated into THP-1 derived macrophages according to modified, previously described protocol. THP-1 monocytes were seeded in 24-well plates at a density of 400,000 cells per well. Cells were incubated at 37 °C under humidified 5% CO2 in the culture medium containing RPMI 1640 without phenol red supplemented with 10% FBS and 2 mM glutamine. In order to differentiate THP-1 monocytes into macrophages, cells were treated with 25 ng/mL PMA followed by 48 h incubation, medium change and an additional 24 h resting. Selected UADs were added to THP-1 derived macrophages at concentrations 2–50 µM and left for 1-h resting. Next, cells were treated with 10 ng/ml LPS. Successful differentiation was confirmed by the presence of distinguishing macrophage markers such as: cell adherence, changes in morphology and response to bacterial LPS stimulation and, consequently, TNF-α secretion.
(§2) After treatment with the test compounds for 1 h and subsequent stimulation with LPS for 3 h (for TNF-α secretion measurements) or 24 h (for IL-10 and IL-6 secretion measurements) supernatants were collected. The secretion of cytokines levels was measured by ELISA kits according to the manufacturer’s instruction (Human TNF-α, Human IL-10 and Human IL-6 ELISA kits, BD Biosciences, Franklin Lakes, NJ, USA). […]
A general note: In an ELISA, binding on a coated surface is turned into a signal by an enzyme label.

Data set [2] deals with IL-6 secretion in LPS-stimulated THP-1 derived macrophages. In words: IL-6 secretion of LPS-stimulated macrophages (ELISA). Particulars: 1 h treatment, then LPS 24 h. Format: cell-based, human. Here is the method: as §1, §2
Data set [3] deals with IL-10 secretion in LPS-stimulated THP-1 derived macrophages. The data set can be described thus: IL-10 secretion of LPS-stimulated macrophages (ELISA). Format: cell-based, human. Conditions: over tested concentrations; 1 h treatment, then LPS 24 h. The method, then: as §1, §2
The test system of data set [4] is THP-1 derived macrophages. In words: MTT assay, cell viability. Format: cell-based, human. Particulars: tested concentration range 2–50 µM; 1 h treatment, then LPS for 3 or 24 h. Here is the method: as §1, with “Successful differentiation was confirmed by the presence of distinguishing macrophage markers such as: cell adherence, changes in morphology and response to bacterial LPS stimulation and, consequently, TNF-α secretion.” left out
THP-1 monocytes were seeded in 24-well plates at a density of 400,000 cells per well and differentiated into THP-1 derived macrophages according to the method described above. […] After medium removal, crystals were dissolved in 400 µL DMSO, 200 µL of solution was transferred to 96-well plate and the absorbance of the solution was measured at λ = 570 nm with the correction to 630 nm using a microplate reader. […]
On the technique in general: Formazan colour is commonly taken as a measure of viable cells.

Each structure is given as a SMILES string.

On to `C=C1C(=O)O[C@H]2[C@H]1CC/C(C)=C/CC[C@@]1(C)O[C@@H]21` [parthenolide], for which, in the data set with THP-1 monocytes (25 µM, positive control), the “Cell viability (PI-stained cells, flow cytometry)” value is “decreased THP-1 viability”.
One may read the melting point as the temperature of the solid-liquid transition. In the case of `COc1ccc2c(c1)c(=O)oc1cc(OC(=O)c3ccccc3Nc3cccc(C)c3C)ccc12` [Mix 8, 8-methoxy-6-oxo-6H-benzo[c]chromen-3-yl 2-((2,3-dimethylphenyl)amino)benzoate], the melting point is 186.7 to 189.2 °C.
On the same count and under the same terms, the value for `COc1ccc2c(c1)c(=O)oc1cc(OC(=O)Cc3ccccc3Nc3c(Cl)cccc3Cl)ccc12` [Mix 9, 8-methoxy-6-oxo-6H-benzo[c]chromen-3-yl 2-(2-((2,6-dichlorophenyl)amino)phenyl)acetate] was 207.3 to 208.5 °C; that for `COc1ccc2c(c1)c(=O)oc1cc(OC(=O)C(C)c3ccc(CC(C)C)cc3)ccc12` (stereo not shown) [Mix 7, 8-methoxy-6-oxo-6H-benzo[c]chromen-3-yl 2-(4-isobutylphenyl)propanoate] was 114.4 to 115.7 °C.
On to `Cc1cccc(Nc2ccccc2C(=O)O)c1C` [mefenamic acid], for which the “Effect on TNF-α secretion” value in data set [1] was “stimulating effect”. In data set [2] (over tested concentrations), the “Effect on IL-6 secretion” value was “increased IL-6 production in a dose-dependent manner”. Moreover, the “Effect on IL-10 secretion” value in data set [3] was “did not influence IL-10 secretion”.
With `O=c1oc2cc(O)ccc2c2ccc(O)cc12` [UA, 3,8-dihydroxy-6H-benzo[c]chromen-6-one], the “Effect on TNF-α secretion” value in data set [1] is “inhibitory effect on TNF-α secretion in a dose-dependent manner”. In addition, in the data set on THP-1 monocytes (50 µM), the “Cell viability (PI-stained cells, flow cytometry)” value is listed as “Slight, yet statistically significant decline in monocytes viability”. In data set [2] (50 µM), the “Effect on IL-6 secretion” value is recorded as “inhibited secretion of IL-6”. Also, in data set [4], the “Cell viability / cytotoxic effect (MTT)” value is reported as “no cytotoxic effect was observed”. Moreover, in data set [3], the “Effect on IL-10 secretion” value is on record as “did not significantly affect IL-10 secretion”.
Regarding `COc1ccc2c(c1)c(=O)oc1cc(OC(=O)c3ccccc3OC(C)=O)ccc12` [Mix 10, 8-methoxy-6-oxo-6H-benzo[c]chromen-3-yl 2-acetoxybenzoate], the melting point was 192.6 to 193.5 °C.
